Where “and” joins values, the source holds several entries; their conditions need not be identical. Equal entries are not always repeated. Where two headings read alike, the source gives them in different places.
Experiments:
[1] = system: graft vs host reaction in CB6F1 mice grafted with BALB/c splenocytes; assay: Graft vs. Host (GVHR) in vivo activity
Procedure: III. Graft vs. Host (GVHR) In Vivo Activity
1. Donor mice (BALB/c) were sacrificed, spleens removed, and spleen cell suspensions prepared in tissue culture medium.
2. The above splenocyte suspension was adjusted to 10.0×10^7 cells/ml.
3. Mice were treated with varying dosages of the test compound. […] Treatment consisted of intraperitoneal injections, daily for 7 days. Dosages were calculated on a mg per kg body weight basis.
4. On day 1 of the first treatment regimen, recipient mice (CB6) were injected intraperitoneally with 0.50 ml (50.0×10^6) of the donor (BALB/c) splenocyte suspension.
5. Controls consisted of the following:
POS--mice receiving BALB/c splenocytes (Positive Control)
SYN--mice receiving CB6 splenocytes (Syngeneic Control)
CYP--mice receiving Cyclophosphamide (100 mg/kg) and BALB/c splenocytes
6. At the end of five days, recipient mice were sacrificed, weighed, and spleens removed and weighed.
7. A spleen index of 1.0 was assigned to the mean spleen weights (adjusted to body weight) of the SYN controls. The spleen index of treated mice was determined by comparing the spleen weights of those mice with that of the […]. […] As a general rule, a spleen index of less than the positive control is indicative of an immunosuppressive (ID) compound.
^a CB6F1 mice (5 mice per group) were grafted with 5 ×
10^7 BALB/c spelnocytes, i.p. on Day 0. Groups were injected, ii.p.,
with drug (or vehicle) on Days 1-6. Positive designates grafted mice
receiving vehicle alone.
^b Number of surviving mice at end of experiment.
(Stimulation Index of Syngeneic group (CB6F1 ->CB6F1) = 100

[2] = Lymphocyte Viability Assay (LCV); type: cell-based, murine; conditions: mouse, splenocytes, read-out: % LCV (percentage of positive control)
Procedure: (§1) II. Lymphocyte Viability Assay
(§2) 1. Compounds were similarly tested in parallel with the MLR to determine their toxic effects on lymphoid cells using the lymphocyte viability assay (LCV).
(§3) 2. Serial, log10 dilutions of the pure compound were made in absolute ethanol, and 10 μl of each dilution was added to wells of microtiter test plates, and allowed to dry.
(§4) 3. Murine splenocyte suspensions were prepared from BALB/c mice. […] The cell concentrations were adjusted to 2.5×10^6 cells/ml.
(§5) 4. A volume of 0.2 ml of the splenocyte suspension was added to replicate test wells. Positive control wells received splenocyte suspensions in the absence of the test compounds.
(§6) 5. Plates were incubated at 37° C. for 86 hours. At the end of the incubation period, a volume of 75 μl of a 2.0 mg/ml solution of MTT was added to each well, and the plates were returned to the incubator for an additional 5 hours.
(§7) 6. The supernatants from each microwell were then removed, and a volume of 200 μl of isopropanol was added and the contents mixed.
(§8) 7. Values were obtained by comparing the optical densities (determined at 570 and 650 nm) of wells containing the test compounds with those of wells containing cells and medium only (positive control). The results are expressed as a percentage of the positive control.
(§9) 8. Replicate counts were averaged, and the data reported as a percentage of the positive control. An LCV value of less than 60% of the positive control is an indication of cytotoxicity of the test compounds for lymphoid cells.

[3] = system: murine splenocyte suspensions (BALB/c and C57BL/6J mice); assay: Mixed Lymphocyte Reaction (MLR); type: cell-based
Procedure: I. Mixed Lymphocyte Reaction
1. Murine splenocyte suspensions were prepared separately from BALB/c and C57BL/6J mice. […] The cell concentrations were adjusted to 2.5×10^6 cells/ml. Aliquots of each cell population were removed to separate tubes, and the remaining two cell suspensions combined to one tube.
as §3
3. A volume of 0.2 ml of the combined splenocyte suspensions was added to triplicate test wells. Positive control wells received combined splenocyte suspensions in the absence of the test compounds. Negative control wells consisted of separate (not mixed) splenocyte suspensions cultured in the absence of the test compounds.
4. Plates were incubated in 5% CO2 at 37° C. for 86 hours.
5. A volume of 0.05 ml of ^3 H-thymidine (20 μCi/ml) was added to each well, and the plates were incubated in 5% CO2 at 37° C. for an additional 5 hours.
6. The contents of each well of the microtiter plates were harvested onto glass fiber filter strips, and the resulting filter discs placed in scintillation vials to which 2.0 ml of scintillation fluid was added.
7. The amount of incorporated ^3 H-thymidine was determined by counting the vials in a liquid scintillation counter.
8. Triplicate counts were averaged, and the data reported as a percentage of the positive control.

[4] = system: lymphoid cells (murine BALB/c splenocytes); assay: Lymphocyte Viability Assay (LCV); type: cell-based
Procedure: as §1, §2, §3, §4, §5, §6, §7, §8, §9

[5] = Mus musculus, Splenocyte, 0.05 μg/ml, read-out: % MLR (percentage of positive control)
[6] = Mus musculus, Splenocyte, 0.5 μg/ml, read-out: % MLR (percentage of positive control)
[7] = Mus musculus, Splenocyte, 5.0 μg/ml, read-out: % MLR (percentage of positive control)
[8] = Mus musculus, Splenocyte, 50 μg/ml, read-out: % MLR (percentage of positive control)

SMILES | viability ([2]; 0.05 μg/ml) | viability ([2]; 0.5 μg/ml) | viability ([2]; 5.0 μg/ml) | viability ([2]; 50 μg/ml) | activity at 0.05 µg/mL [3, 5] | activity at 0.5 µg/mL [3, 6] | activity at 5 µg/mL [3, 7] | activity at 50 µg/mL [3, 8] | also measured
O=P1(N(CCCl)CCCl)NCCCO1 (stereo not shown) [Cyclophosphamide, reference compound] |  |  |  |  |  |  |  |  | % Suppression ([1]; 100 mg/kg, i.p.): 160% and 142% and 132%; # Mice (number of surviving mice at end of experiment) ([1]; 100 mg/kg, i.p., 5 mice per group): 5 mice; suppression of the GVHR (splenomegaly response), in words ([1]; mouse, in vivo): displayed the characteristic suppression of the splenomegaly response
C#CC(O)CCC=CCCCCC (stereo not shown) [CH3 (CH2)4 CH=CHCH2 CH2 CHOHC≡CH] | 65% | 57% | 45% | 51% | 137% | 122% | 110% | 50% | % Suppression ([1]; 50.0 mg/kg, i.p.): 35%; Stim. Index (spleen index) ([1]; 50.0 mg/kg, i.p.): 2.09; % Suppression ([1]; 100 mg/kg, i.p.): 59%; Stim. Index (spleen index) ([1]; 100 mg/kg, i.p.): 1.69; % Suppression ([1]; 150.0 mg/kg, i.p.): 28%; Stim. Index (spleen index) ([1]; 150.0 mg/kg, i.p.): 2.21; % Suppression ([1]; 200 mg/kg, i.p.): 57%; Stim. Index (spleen index) ([1]; 200 mg/kg, i.p.): 1.72; suppression of the GVHR (splenomegaly response), in words ([1]; mouse, in vivo): demonstrated suppressive activity in the GVHR at all dosages tested; toxicity as measured by survival of treated recipients, in words ([1]; mouse, in vivo): no associated toxicity as measured by survival of treated recipients
C#CC(O)CCCCCCC (stereo not shown) [CH3 (CH2)6 CHOHC≡CH] | 72% | 85% | 70% | 61% | 117% | 130% | 131% | 108% | 
CCCCCC=CC(O)C#CCCCCCCCC (stereo not shown) [CH3 (CH2)4 CH=CH--CHOH--C≡C--(CH2)7 CH3] |  |  |  |  |  |  |  |  | % LCV (percentage of positive control) ([4]; 0.05 μg/ml): 128%; % LCV (percentage of positive control) ([4]; 0.2 μg/ml): 119%; % LCV (percentage of positive control) ([4]; 0.8 μg/ml): 105%; % LCV (percentage of positive control) ([4]; 3.1 μg/ml): 86%; % LCV (percentage of positive control) ([4]; 12.5 μg/ml): 28%; % LCV (percentage of positive control) ([4]; 50 μg/ml): 14%; % MLR (percentage of positive control) ([3]; 0.05 μg/ml): 127%; % MLR (percentage of positive control) ([3]; 0.2 μg/ml): 135%; % MLR (percentage of positive control) ([3]; 0.8 μg/ml): 122%; % MLR (percentage of positive control) ([3]; 3.1 μg/ml): 64%; % MLR (percentage of positive control) ([3]; 12.5 μg/ml): 0%; % MLR (percentage of positive control) ([3]; 50 μg/ml): 0%
C#CC(O)C=CC=CCCCC (stereo not shown) [CH3 (CH2)3 CH=CH--CH=CH--CHOHC≡CH] | 103% | 72% | 14% | 29% | 134% | 0% | 0% | 0% | 
C#CC(=O)CCCCCCCCCCCCCCCC [CH3 (CH2)15 COC≡CH] | 91% | 89% | 47% | 34% | 114% | 7% | 0% | 0% | 
C#CC(O)C=CCCCCCCCCCCCCCCCC (stereo not shown) [CH3 (CH2)15 CH=CHCOHC≡CH] |  |  |  |  |  |  |  |  | % LCV (percentage of positive control) ([4]; 0.05 μg/ml): 78%; % LCV (percentage of positive control) ([4]; 0.5 μg/ml): 78%; % LCV (percentage of positive control) ([4]; 5.0 μg/ml): 17%; % LCV (percentage of positive control) ([4]; 50 μg/ml): 13%; % MLR (percentage of positive control) ([3]; 0.05 μg/ml): 13%; % MLR (percentage of positive control) ([3]; 0.5 μg/ml): 0%; % MLR (percentage of positive control) ([3]; 5.0 μg/ml): 0%; % MLR (percentage of positive control) ([3]; 50 μg/ml): 0%
C#CC(O)CCCC (stereo not shown) [CH3 (CH2)3 CHOHC≡CH] | 117% | 116% | 0% | 61% | 89% | 136% | 47% | 0% | 
C#CC(O)CCCCCCCCCCCCCCC (stereo not shown) [CH3 (CH2)14 CHOHC≡CH] | 105% | 47% | 36% | 10% | 100% | 0% | 0% | 0% | 
C#CC(O)CCCCCCCCCCCCCCCC (stereo not shown) [CH3 (CH2)15 CHOHC≡CH] | 49% | 22% | 24% | 22% | 0% | 0% | 0% | 0% | viability ([2]; 0.005 μg/ml): 65%; activity at 0.005 µg/mL ([3]; Mus musculus, Splenocyte, 0.005 μg/ml, read-out: % MLR (percentage of positive control)): 0%; % Suppression ([1]; 50.0 mg/kg, i.p.): 49%; % Suppression ([1]; 100 mg/kg, i.p.): 0%; % Suppression ([1]; 150.0 mg/kg, i.p.): 4%; % Suppression ([1]; 200 mg/kg, i.p.): 0%
C=CC(O)CCCCCCCCCCCCCCCC (stereo not shown) [CH3 (CH2)15 CHOHCH=CH2] | 80% | 80% | 2% | 5% | 99% | 74% | 0% | 0% | 

— US5166379A, “Synthesis of compounds with biological activity, and methods of use” (Harbor Branch Oceanographic Institution, Inc., priority 1990, dated 1992)
